≈ marks a conversion by molar mass, not a printed value.

Experiment [1] relates to Clostridioides difficile. As to the kind of experiment: Antibacterial activity against Clostridium difficile CD 630 assessed as growth inhibition. In kind it is functional.
The subject of experiment [2] is Mycobacterium tuberculosis. As to the kind of experiment: Antibacterial activity against Mycobacterium tuberculosis H37Rv logarithmic phase forms by spot culture growth inhibition assay. In kind it is functional.
Experiment [3] is described as follows: Inhibition of Escherichia coli topoisomerase 4-mediated DNA relaxation activity.
For the next experiment, the target named is DNA gyrase (Staphylococcus aureus, UniProt P0A0K8+P20831). As to the kind of experiment: Inhibition of Staphylococcus aureus DNA gyrase assessed as reduction in enzyme-catalyzed supercoiling of relaxed circular pBR322 DNA incubated for 30 mins by agarose gel electrophoresis. In kind it is protein-complex assay.
DNA gyrase, sequence (P0A0K8 whole entry): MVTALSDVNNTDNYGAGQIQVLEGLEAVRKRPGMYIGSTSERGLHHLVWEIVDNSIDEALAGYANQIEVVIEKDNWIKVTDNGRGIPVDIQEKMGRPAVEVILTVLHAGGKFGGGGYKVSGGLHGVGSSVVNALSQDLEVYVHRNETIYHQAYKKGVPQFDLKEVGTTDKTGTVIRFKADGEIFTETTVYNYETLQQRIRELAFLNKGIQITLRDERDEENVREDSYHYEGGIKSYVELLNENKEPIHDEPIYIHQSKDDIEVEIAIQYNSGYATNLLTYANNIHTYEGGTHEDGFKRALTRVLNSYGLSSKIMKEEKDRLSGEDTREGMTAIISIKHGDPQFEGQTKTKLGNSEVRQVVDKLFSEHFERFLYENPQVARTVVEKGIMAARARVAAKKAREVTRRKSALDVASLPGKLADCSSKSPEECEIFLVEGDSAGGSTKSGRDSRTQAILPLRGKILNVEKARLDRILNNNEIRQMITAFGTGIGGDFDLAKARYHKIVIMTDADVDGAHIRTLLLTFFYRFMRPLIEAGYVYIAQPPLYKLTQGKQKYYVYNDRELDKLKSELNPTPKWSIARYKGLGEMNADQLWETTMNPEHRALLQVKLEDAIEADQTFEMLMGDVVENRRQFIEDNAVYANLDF
DNA gyrase, sequence (P20831 whole entry): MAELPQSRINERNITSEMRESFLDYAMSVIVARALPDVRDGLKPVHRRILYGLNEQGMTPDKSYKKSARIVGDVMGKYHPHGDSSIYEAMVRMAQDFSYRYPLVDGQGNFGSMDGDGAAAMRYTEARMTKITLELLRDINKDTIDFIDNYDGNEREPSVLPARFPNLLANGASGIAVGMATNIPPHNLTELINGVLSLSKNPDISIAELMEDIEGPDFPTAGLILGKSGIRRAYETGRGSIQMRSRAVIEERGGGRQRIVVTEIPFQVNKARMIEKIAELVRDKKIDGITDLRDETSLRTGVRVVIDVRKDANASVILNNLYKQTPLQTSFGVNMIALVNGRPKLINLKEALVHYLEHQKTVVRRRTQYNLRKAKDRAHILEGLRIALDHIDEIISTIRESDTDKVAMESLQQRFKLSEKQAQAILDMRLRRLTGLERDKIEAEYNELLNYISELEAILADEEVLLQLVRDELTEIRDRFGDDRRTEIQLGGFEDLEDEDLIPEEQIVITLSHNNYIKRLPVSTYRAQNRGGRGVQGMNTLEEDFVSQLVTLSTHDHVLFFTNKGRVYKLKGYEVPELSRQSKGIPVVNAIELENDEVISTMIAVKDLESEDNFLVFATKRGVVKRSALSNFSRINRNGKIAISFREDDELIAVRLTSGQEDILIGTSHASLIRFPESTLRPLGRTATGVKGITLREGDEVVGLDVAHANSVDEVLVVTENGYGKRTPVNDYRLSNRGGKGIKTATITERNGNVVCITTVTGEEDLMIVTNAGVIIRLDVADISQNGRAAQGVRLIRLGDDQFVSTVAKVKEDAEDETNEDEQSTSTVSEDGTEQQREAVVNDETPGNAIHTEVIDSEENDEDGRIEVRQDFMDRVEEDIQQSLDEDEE
For experiment [4], the system named is Staphylococcus aureus. As to the kind of experiment: Antibacterial activity against clinical isolates of Staphylococcus aureus EMRSA-16 assessed as growth inhibition after 20 hrs by broth dilution method. In kind it is functional. The following applies: EMRSA-16, 20 h. (Dilution methods test growth across graded concentrations, often in twofold steps.)
For experiment [5], the system named is Escherichia coli. As to the kind of experiment: Antibacterial activity against Escherichia coli MC 1061 assessed as growth inhibition. In kind it is functional.
A short description of experiment [6]: Inhibition of Escherichia coli DNA gyrase supercoiling activity.
For experiment [7], the target named is DNA gyrase subunit A/DNA gyrase subunit B (Mycobacterium tuberculosis (strain ATCC 25618 / H37Rv), UniProt P9WG45+P9WG47). Description: Inhibition of Mycobacterium tuberculosis H37Rv DNA gyrase supercoiling activity.
DNA gyrase subunit A/DNA gyrase subunit B, sequence (P9WG45 whole entry): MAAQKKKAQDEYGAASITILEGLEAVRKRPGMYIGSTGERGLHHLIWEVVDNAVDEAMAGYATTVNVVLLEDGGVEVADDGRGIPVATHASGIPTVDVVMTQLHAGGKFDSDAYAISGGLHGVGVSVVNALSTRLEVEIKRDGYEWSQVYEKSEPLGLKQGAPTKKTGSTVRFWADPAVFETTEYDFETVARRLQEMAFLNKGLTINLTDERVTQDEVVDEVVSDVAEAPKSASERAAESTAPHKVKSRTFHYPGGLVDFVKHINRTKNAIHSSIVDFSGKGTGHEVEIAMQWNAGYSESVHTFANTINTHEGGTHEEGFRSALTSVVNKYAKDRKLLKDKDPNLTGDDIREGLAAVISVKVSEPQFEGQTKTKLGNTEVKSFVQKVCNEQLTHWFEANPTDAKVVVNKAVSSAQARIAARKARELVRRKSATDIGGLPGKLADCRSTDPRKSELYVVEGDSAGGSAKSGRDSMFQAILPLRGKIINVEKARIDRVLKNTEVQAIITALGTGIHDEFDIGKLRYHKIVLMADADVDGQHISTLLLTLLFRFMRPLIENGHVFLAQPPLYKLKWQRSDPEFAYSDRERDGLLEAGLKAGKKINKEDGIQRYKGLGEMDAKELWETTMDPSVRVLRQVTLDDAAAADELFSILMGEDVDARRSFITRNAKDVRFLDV
DNA gyrase subunit A/DNA gyrase subunit B, sequence (P9WG47 whole entry): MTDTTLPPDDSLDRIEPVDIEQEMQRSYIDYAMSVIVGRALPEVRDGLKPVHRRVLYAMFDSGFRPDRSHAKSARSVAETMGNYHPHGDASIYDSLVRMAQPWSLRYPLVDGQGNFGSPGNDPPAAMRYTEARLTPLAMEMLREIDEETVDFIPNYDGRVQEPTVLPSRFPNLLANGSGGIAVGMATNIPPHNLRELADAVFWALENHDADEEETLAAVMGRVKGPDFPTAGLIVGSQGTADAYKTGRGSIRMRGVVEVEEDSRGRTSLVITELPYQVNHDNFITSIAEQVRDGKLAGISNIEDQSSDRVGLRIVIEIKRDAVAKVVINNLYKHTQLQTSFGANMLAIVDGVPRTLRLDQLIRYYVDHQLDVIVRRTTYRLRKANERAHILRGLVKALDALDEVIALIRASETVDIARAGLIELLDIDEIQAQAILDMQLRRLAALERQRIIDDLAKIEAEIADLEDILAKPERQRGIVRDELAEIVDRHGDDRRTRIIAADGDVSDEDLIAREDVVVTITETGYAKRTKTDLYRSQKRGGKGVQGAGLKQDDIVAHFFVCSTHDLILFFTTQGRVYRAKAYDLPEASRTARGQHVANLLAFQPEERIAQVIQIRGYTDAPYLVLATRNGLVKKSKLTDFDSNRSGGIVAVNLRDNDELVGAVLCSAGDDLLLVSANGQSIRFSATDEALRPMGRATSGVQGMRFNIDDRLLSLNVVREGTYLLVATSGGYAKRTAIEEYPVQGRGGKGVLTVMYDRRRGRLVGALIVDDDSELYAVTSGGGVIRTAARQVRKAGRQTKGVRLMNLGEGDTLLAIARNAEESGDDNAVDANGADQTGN
Experiment [8] is described as follows: Inhibition of Escherichia coli topoisomerase 4-mediated DNA decatenation activity.
The subject of experiment [9] is Escherichia coli. Description: Antibacterial activity against Escherichia coli NCTC 10418 assessed as growth inhibition. It is filed as functional.
Experiment [10] can be described thus: Inhibition of Staphylococcus aureus topoisomerase 4 assessed as inhibition of decatenation of catenated kinetoplast DNA after 30 mins by agarose gel electrophoresis.
Experiment [11] can be described thus: Inhibition of Clostridium difficile DNA gyrase supercoiling activity. On the set-up: species or system Clostridioides difficile.
For experiment [12], the system named is Mycobacterium tuberculosis. As to the kind of experiment: Antibacterial activity against Mycobacterium tuberculosis H37Rv hypoxia-induced latency form by spot culture growth inhibition assay. In kind it is functional.
For experiment [13], the system named is Staphylococcus aureus. Description: Antibacterial activity against Staphylococcus aureus ATCC 29213 assessed as growth inhibition after 20 hrs by broth dilution method. In kind it is functional. The note with it: ATCC 29213, 20 h.
The test system of experiment [14] is Clostridioides difficile. As to the kind of experiment: Antibacterial activity against Clostridium difficile R20291 assessed as growth inhibition. In kind it is functional.

Turning to `Nc1ccc(-c2nc3cc(-c4ccc5[nH]c(-c6ccc(N)cc6)nc5c4)ccc3[nH]2)cc1`, the MIC90 is 0.03 µg/mL (≈ 0.072 µM) in the experiment on Clostridioides difficile [1]; 16 µg/mL (≈ 38.4 µM) in [2]; 0.5 µg/mL (≈ 1.2 µM) with Staphylococcus aureus [4]; 0.06 µg/mL (≈ 0.144 µM) with Escherichia coli [5]; > 64 µg/mL in the experiment with Escherichia coli [9]; 8 µg/mL (≈ 19.2 µM) in experiment [12]. Besides, the MIC90 in the experiment on Staphylococcus aureus [13] and in the experiment with Clostridioides difficile [14] was 0.125 µg/mL (≈ 0.3 µM) each time. Further, the 50% inhibitory concentration (IC50) in [3] is 6.5 µM; on DNA gyrase, 0.3 µM; in [6] it was > 50 µM; in experiment [7] it was 11.3 µM; in [8], 8 µM; in experiment [10] it was 15.5 µM. The same compound gave an IC50 in [11] of 8.4 µM.

Regarding `c1cc(-c2nc3cc(-c4ccc5[nH]c(-c6ccncc6)nc5c4)ccc3[nH]2)ccn1` [RIDINILAZOLE], the MIC90 in the experiment with Clostridioides difficile [1] was 0.06 µg/mL (≈ 0.154 µM); in the experiment with Staphylococcus aureus [4], > 128 µg/mL; with Escherichia coli [9] it was > 16 µg/mL; in the experiment with Staphylococcus aureus [13], > 128 µg/mL; in the experiment on Clostridioides difficile [14], 0.125 µg/mL (≈ 0.322 µM). Moreover, the half-inhibitory concentration (IC50) (on DNA gyrase; in experiment [6]; in experiment [8]; in [10]; in experiment [11]) was > 50 µM in each case.

For the compound `COc1cccc(-c2nc3ccc(-c4ccc5nc(-c6cccc(OC)c6)[nH]c5c4)cc3[nH]2)c1`, the MIC90 in the experiment on Clostridioides difficile [1] is > 32 µg/mL; in experiment [2], > 16 µg/mL; with Staphylococcus aureus [4] it was > 128 µg/mL; in the experiment on Escherichia coli [5], > 64 µg/mL; in the experiment with Escherichia coli [9] it was > 64 µg/mL; in the experiment on Staphylococcus aureus [13], > 128 µg/mL. For the same compound, the MIC90 in the experiment on Clostridioides difficile [14] was > 32 µg/mL. In addition, the 50% inhibitory concentration (IC50) in experiment [3] is > 50 µM; on DNA gyrase it was 8.8 µM; in experiment [6] it was > 50 µM; in experiment [7] it was 29 µM; in experiment [8] it was > 50 µM; in [10], 70.3 µM.

On to `Cc1ccc(-c2nc3ccc(-c4ccc5nc(-c6ccc(C)cc6)[nH]c5c4)cc3[nH]2)cc1`, for which the MIC90 in the experiment with Clostridioides difficile [1] is 0.06 µg/mL (≈ 0.145 µM); in [2], 1 µg/mL (≈ 2.41 µM); in the experiment on Staphylococcus aureus [4], 0.06 µg/mL (≈ 0.145 µM); in the experiment with Escherichia coli [5], 0.06 µg/mL (≈ 0.145 µM); in the experiment with Escherichia coli [9] it was > 64 µg/mL; in [12] it was 2 µg/mL (≈ 4.82 µM). Moreover, the MIC90 was 0.03 µg/mL (≈ 0.0724 µM) in the experiment on Staphylococcus aureus [13] and 0.06 µg/mL (≈ 0.145 µM) with Clostridioides difficile [14]. Further, the concentration for half-maximal inhibition (IC50) was > 50 µM in experiment [3]; 5.6 µM at DNA gyrase; > 50 µM in [6]; 2 µM in experiment [7]; > 50 µM in [8]; 50.9 µM in experiment [10].

For orientation: MIC90 means an inhibitory concentration at the 90% level, which refers to growth in some studies and to a panel of isolates in others. Usually IC50 stands for the concentration at which inhibition is half-maximal.

The record behind these values is ChEMBL document CHEMBL3751811, “The discovery of a novel antibiotic for the treatment of Clostridium difficile infections: a story of an effective academic-industrial partnership” (Medchemcomm, 2015).
